Assay results from patent publication US4380535A, “Enkephalin degrading enzyme inhibitors” (priority 1981, dated 1983).
Structures can show the parent of a compound that is named as a salt.

Tests used:
[1] = tested on: enkephalin-degrading aminopeptidase; assay: inhibition of brain enzyme degradation of 3H-Leu-enkephalin (solubilized rat brain membrane preparation, TLC); format: biochemical; conditions: 1.0×10^-3 M inhibitor, 5.0×10^-4 M 3H-Leu-enkephalin, 37° C., 1 hour; control 52%
Protocol: The ability of the compounds of the invention to inhibit the brain enzyme degradation of enkephalins was studied in the following test procedure.
Brain enzymes from rats are used in the procedure and for this purpose solubilized rat brain membrane preparation, prepared as follows, is used:
Brains from young male Charles River Co. rats were homogenized in 30 volumes 50 mM Tris pH 7.7 with a Polytron (Brinkmann). The homogenate was centrifuged at 50,000 x g for 15 min. The supernatant was discarded the pellet resuspended in 50 mM Tris pH 7.7 and centrifuged at 50,000 x g for 15 min. The resultant pellet was resuspended, centrifuged and washed 3 additional times as described above. The membrane pellet was solubilized by resuspension in 15 volumes 50 mM Tris pH 7.7, 1% Triton X-100 and incubation at 37° C. for 45 min. […]
This preparation is incubated at 37° C. for 1 hour in the presence of 5.0×10^-4 M ^3 H-Leu-enkephalin in 50 mM tris buffer and 1.0×10^-3 M of the inhibitor to be tested. […] Markers of Leu-enkephalin (LE), tyrosinge (T) and tyrosine-glycine-glucine (TGG) are run with all samples and the relevant areas are scraped into scintillation vials and counted. […]
When N-Me-Tyr-D-Cys-Gly-N-MePhe-Thz-NH2 is tested in this procedure, the percentage of hydrolysis poructs (analyzed by TLC of tagged Leu-enkephalin) is as follows: […]

[2] = tested on: phenylbenozquinone-induced writhing; assay: phenylbenzoquinone-induced writhing test (modified Siegmund); format: in vivo; conditions: mice, subcutaneous administration, at 15 minutes; limits (10.9-29.7)
Protocol: Biol. Med., 95, 729-731 (1957). According to this procedure, test compound is administered at various doses to ten mice per dose level. The animals then receive intraperitoneal injection with 0.25 ml of the writhing agonist (a 0.02% solution of benzoquinone) 5 min before the beginning of a pre-selected, 10 min observation period. Typical observation periods include 10 to 20, 25 to 35, 40 to 50 and 55 to 65 min following administration of the test compound. The mice are observed during the observation period for the presence of an all-or-none writhing reaction.
If the compound is active, its dose response and ED50 value are determined according to the method of D. J. Finney (Statistical Methods in Biological Assay, Griffin and Co., London, 1964).

[3] = tested on: opiate receptor; assay: opiate receptor affinity, 3H-naloxone displacement in rat brain homogenate (modified Chang); format: binding; conditions: 3H-naloxone displacement (ID50) relative to morphine, with NaCl

SMILES: CN[C@@H](Cc1ccc(O)cc1)C(=O)N[C@H](CS)C(=O)NCC(=O)N(C)[C@@H](Cc1ccccc1)C(=O)N1CSC[C@H]1C(N)=O [N-Me-Tyr-D-Cys-Gly-N-MePhe-Thz-NH2, N^α -Methyl-L-tyrosyl-D-cysteinyl-glycyl-N-methyl-L-phenylalanyl-L-thiazolidine-4-carboxamide, acetate salt]
- percentage of hydrolysis products: Tyr [1]: 14%
- ED50 [2]: 18 mg/kg
- relative displacement potency as compared to morphine (1) [3]: 2.6
